Results from US7612075B2, “Substituted oxoazaheterocyclyl compounds” (Aventis Pharmaceuticals Inc., priority 1998, dated 2009).
Where a name gives a salt, the structure may show the parent alone. No end group written: not given here.

Tests used:
[1] = system: human cultured vascular smooth muscle cells; conditions: cited from earlier work
[2] = system: rat cultured vascular smooth muscle cells; conditions: cited from earlier work
rabbit carotid artery = rabbit carotid artery air-drying injury model, after vascular injury; cited from earlier work

Molecule	melting point	further results
Nc1n[nH]c2cc(CN3CCN(Cc4cc5ccc(Cl)cc5s4)CC3=O)ccc12 [Example 874, 1-(3-Amino-1H-indazol-6-ylmethyl)-4-(6-chloro-benzo[b]thiophen-2-ylmethyl)-piperazin-2-one]	246 to 248 °C	
N=C(N)c1ccc(CN2CCC(Cc3nc4ccc(Cl)cc4[nH]3)CC2=O)cc1 (stereo not drawn) (as salt: salt) [Example 815, 4-[4-(6-Chloro-1H-benzoimidazol-2-ylmethyl)-2-oxo-piperidin-1-ylmethyl]-benzamidine]	105 to 110 °C	
N=C(N)c1ccc(CN2CCN(Cc3nc4ccc(Cl)cc4[nH]3)CC2=O)cc1 (as salt: salt) [Example 122, 4-[4-(6-Chloro-1H-benzoimidazol-2-ylmethyl)-2-oxo-piperazin-1-ylmethyl]-benzamidine]	91 to 95 °C	
TAP: named only as TAP; cited (F Bono, et al.) where the mitogenic effect of Factor Xa is said to depend on its enzymatic activity (YNRLCIKPRDWIDECDSNEGGERAYFRNGKGGCDSFWICPEDHTGADYYSSYRDCFNACI; ends and bridges not checked; cysteine pairing not given here; UniProt P17726 1-60, looked up)		mitogenesis of human cultured vascular smooth muscle cells [1]: inhibited; mitogenesis of rat cultured vascular smooth muscle cells [2]: inhibited
CC(=N)N1CC[C@H](Oc2ccc([C@H](Cc3ccc4ccc(C(=N)N)cc4c3)C(=O)O)cc2)C1 [DX-9065a]		neointimal proliferation (rabbit carotid artery): less neointimal proliferation
Nc1ncnc2cc(CN3CCC(Cc4nc5ccc(Cl)cc5[nH]4)CC3=O)ccc12 (stereo not drawn) [Example 816, 1-(4-Amino-quinazolin-7-ylmethyl)-4-(6-chloro-1H-benzoimidazol-2-ylmethyl)-piperidin-2-one]	128 to 132 °C	

Now from value to molecule, other results behind:

melting point	Molecule	further results
116 to 120 °C	C[C@H]1CN(Cc2ccc3c(N)ncnc3c2)C(=O)[C@H](C)N1C(=O)C=Cc1ccc(Cl)s1 (as salt: salt) [Example 669, (3S, 5S)-1-(4-Amino-quinazolin-7-ylmethyl)-4-[3-(5-chloro-thiophen-2-yl)-acryloyl]-3,5-dimethyl-piperazin-2-one]	
224 to 226 °C	C[C@H]1CN(Cc2ccc3c(N)ncnc3c2)C(=O)[C@H](C)N1S(=O)(=O)c1cc2ccc(Cl)cc2s1 [Example 668, (3S, 5S)-1-(4-Amino-quinazolin-7-ylmethyl)-4-(6-chloro-benzo[b]thiophen-2-sulfonyl)-3,5-dimethyl-piperazin-2-one]	
218 to 221 °C	C[C@H]1CN(Cc2ccc3c(N)ncnc3c2)C(=O)[C@H](C)N1S(=O)(=O)C=Cc1ccc(Cl)s1 [Example 667, (3S, 5S)-1-(4-Amino-quinazolin-7-ylmethyl)-4-[2-(5-chloro-thiophen-2-yl)-ethenesulfonyl]-3,5-dimethyl-piperazin-2-one]	
67 to 70 °C	C[C@@H]1CN(Cc2ccc3c(N)ncnc3c2)C(=O)[C@H](C)N1CC=Cc1ccc(Cl)s1 (as salt: trifluoroacetic acid salt) [Example 665, (3S,5R)-1-(4-Amino-quinazolin-7-ylmethyl)-4-[3-(5-chloro-thiophen-2-yl)-allyl]-3,5-dimethyl-piperazin-2-one]	
274 to 276 °C	Nc1n[nH]c2cc(CN3CCN(S(=O)(=O)c4cc5ccc(Cl)cc5s4)CC3=O)ccc12 [Example 876, 1-(3-Amino-1H-indazol-6-ylmethyl)-4-(6-chloro-benzo[b]thiophene-2-sulfonyl)-piperazin-2-one]	
